Ends that are not written are not given here.
Tests used:
Assay in all cases: biochemical
Type in all cases: binding
HLA-B*5301 = HLA-B*5301 (Homo sapiens, UniProt P01889, A329T/A93T/A95T/C349S/D201E/D98Y/E176V/E187L/E204Q/E69T/G107R/I218V/K202T/L105A/L119I/N104I/Q94N/R106L/R155S/R180L/S101N/S121R/S35A/S48A/T118I/V127L/V306I/V36M/Y140S/Y91F)
HLA-B*5401 = HLA-B*5401 (Homo sapiens, UniProt P01889, A329T/C349S/D138N/D201E/E176V/E187T/E204Q/E69G/I76V/K202T/L119W/R155S/R180L/S121T/S35A/S48A/V127L/V306I/V36M/Y140L)
HLA-B*5101 = HLA-B*5101 (Homo sapiens, UniProt P01889, A329T/A93T/A95T/C349S/D138N/D201E/D98Y/E187L/E204Q/E69T/G107R/I218V/K202T/L105A/L119W/N104I/Q94N/R106L/R155S/R180L/S101N/S121T/S35A/S48A/V306I/V36M/Y195H/Y91F)
HLA-B*3501 = HLA-B*3501 (Homo sapiens, UniProt P01889, A329T/A93T/A95T/C349S/D201E/D98Y/E176V/E187L/E204Q/E69T/I218V/K202T/L119I/Q94N/R155S/R180L/S121R/S35A/S48A/T118I/V127L/V306I/V36M/Y140S/Y91F)
HLA-B*0702 = HLA-B*0702 (Homo sapiens, UniProt P01889)

LPRRSGAAGA [NP.172]
IC50 (HLA-B*5301): > 10000 nM | IC50 (HLA-B*5401): 47 nM | IC50 (HLA-B*5101): > 10000 nM | IC50 (HLA-B*3501): > 10000 nM | IC50 (HLA-B*0702): 2 nM

— article PMC2856764 (Human immunology, 2010)
